Experimental data reported in patent US6969724B2, “Compounds” (SmithKline Beecham-SpA, priority 1998, dated 2005).

| melting point | SMILES |
| --- | --- |
| 158 to 160 °C | Cl.Oc1ccccc1C1CCN(CC2CCc3ccccc3C(O)C2)CC1 (racemic) |
| 176 to 189 °C | COc1cccc2c1C(O)CC(CN1CCC(c3ccccc3)CC1)CC2.Cl (racemic) |
| > 250 °C | COc1cccc2c1CC[C@H](CN1CCC(c3ccccc3)CC1)C[C@H]2O.Cl (racemic) |
| 245 to 246 °C | Cl.O[C@@H]1C[C@H](CN2CCC(c3ccccc3)CC2)CCc2c(-c3ccccc3)cccc21 (racemic) |
| 229 to 231 °C | COc1cccc2c1CC[C@@H](CN1CCC(c3ccccc3)CC1)C[C@H]2O.Cl (racemic) |
| 45 to 48 °C | COc1ccc2c(c1)C(O)CC(CN1CCC(c3ccccc3)CC1)CC2 (racemic) [Example 11, (±)-3-Methoxy-7-[(4-phenylpiperidin-1-yl)methyl]-6,7,8,9-tetrahydro-5H-benzocyclohepten-5-ol] |
| 140 to 143 °C | COc1cccc2c1CCC(CN1CCC(c3ccccc3)CC1)CC2=O.Cl (racemic) |
| > 250 °C | Cl.c1ccc(C2CCN(C3Cc4ccccc4C3)CC2)cc1 |
| 218 to 220 °C | Cl.OC1CC(CN2CCC(c3ccccc3)CC2)CCc2c(F)cccc21 (racemic) |
| > 250 °C | C1=CC(CN2CCC(c3ccccc3)CC2)CCc2ccccc21.Cl (racemic) |
| 180 to 185 °C | Cl.O=C1CC(CN2CCC(c3ccccc3)CC2)CCc2ccc(Cl)cc21 (racemic) |
| 126 to 128 °C | C=CCO[C@@H]1C[C@H](CN2CCC(c3ccccc3)CC2)CCc2ccccc21.Cl (racemic) |
| 238 to 240 °C | Cl.O[C@@H]1C[C@H](CN2CCC(c3cccc(F)c3)CC2)CCc2ccccc21 (racemic) |
| 225 to 228 °C | Cl.O[C@@H]1C[C@H](CN2CCC(c3ccc(OCc4ccccc4)cc3)CC2)CCc2ccccc21 (racemic) |
| > 250 °C | Cc1ccccc1C1CCN(C[C@@H]2CCc3ccccc3[C@H](O)C2)CC1.Cl (racemic) |
| 220 to 222 °C | CO[C@@H]1C[C@@H](CN2CCC(c3ccccc3)CC2)CCc2ccccc21.Cl (racemic) |
| 223 to 225 °C | COc1cc(OC)cc(C2CCN(CC3CCc4ccccc4C(O)C3)CC2)c1.Cl (racemic) |
| 72 to 74 °C | COc1ccccc1C1CCN(C[C@@H]2CCc3ccccc3[C@H](O)C2)CC1 (racemic) [Example 21, (±)-cis-7-[[4-(2-methoxyphenyl)piperidin-1-yl]methyl]-6,7,8,9-tetrahydro-5H-benzocyclohepten-5-ol] |
| 227 to 229 °C | Cl.OC1CC(CN2CCC(c3ccc(F)cc3)CC2)CCc2ccccc21 (racemic) |
| 220 to 224 °C | Cl.O[C@@H]1C[C@H](CN2CCC(c3ccccc3)CC2)CCc2c(Br)cccc21 (racemic) |
| > 240 °C | Cl.c1ccc(C2CCN(CC3Cc4ccccc4C3)CC2)cc1 |

| melting point | SMILES |
| --- | --- |
| > 250 °C | Cl.c1ccc(C2CCN(C3CCc4ccccc4CC3)CC2)cc1 |
| 239 to 240 °C | Cl.OC1CC(CN2CCC(c3ccccc3Cl)CC2)CCc2ccccc21 (racemic) |
| 46 to 48 °C | COc1cccc2c1CCC(CN1CCC(c3ccccc3)CC1)CC2O (racemic) [Example 10, (±)-1-Methoxy-7-[(4-phenylpiperidin-1-yl)methyl]-6,7,8,9-tetrahydro-5H-benzocyclohepten-5-ol] |
| 52 to 55 °C | Cc1cccc2c1CC[C@@H](CN1CCC(c3ccccc3)CC1)C[C@H]2O (racemic) [Example 27, (±)-cis-1-methyl-7-[(4-phenylpiperidin-1-yl)methyl]-6,7,8,9-tetrahydro-5H-benzocyclohepten-5-ol] |
| > 250 °C | Cl.O[C@@H]1C[C@H](CN2CCC(c3cccc(Br)c3)CC2)CCc2ccccc21 (racemic) |
| > 250 °C | Cl.c1ccc(C2CCN(CC3CCc4ccccc4CC3)CC2)cc1 |
| 48 to 50 °C | O[C@@H]1C[C@H](CN2CCC(c3ccccc3)CC2)CCc2ccccc21 (racemic) [Example 9, (±)-cis-7-[(4-Phenylpiperidin-1-yl)methyl]-6,7,8,9-tetrahydro-5H-benzocyclohepten-5-ol] |
| 222 to 225 °C | Cc1cc(C)c2c(c1)C(=O)CC(CN1CCC(c3ccccc3)CC1)CC2.Cl (racemic) |
| 220 °C (dec.) | Cl.O=C1CC(CN2CCC(c3ccccc3)CC2)CCc2ccccc21 (racemic) |
| 190 to 193 °C | Cl.Oc1cccc2c1CC[C@@H](CN1CCC(c3ccccc3)CC1)C[C@H]2O (racemic) |
| 216 to 218 °C | Cl.O=C1CC(CN2CCC(c3ccccc3O)CC2)CCc2ccccc21 (racemic) |
| 232 to 234 °C | COc1ccccc1C1CCN(CC2CCc3ccccc3C(=O)C2)CC1.Cl (racemic) |
| > 250 °C | Cl.O[C@@H]1C[C@@H](CN2CCC(c3ccccc3)CC2)CCc2ccccc21 (racemic) |
| 213 to 215 °C | CO[C@@H]1C[C@H](CN2CCC(c3ccccc3)CC2)CCc2ccccc21.Cl (racemic) |
| 198 to 202 °C | Cl.OC1CC(CN2CCC(c3ccccc3)CC2)CCc2c(OCc3ccccc3)cccc21 (racemic) |
| 241 to 243 °C | Cc1cccc2c1CC[C@@H](CN1CCC(c3cccc(F)c3)CC1)C[C@H]2O.Cl (racemic) |
| 185 to 188 °C | COc1ccc2c(c1)C(=O)CC(CN1CCC(c3ccccc3)CC1)CC2.Cl (racemic) |
| 245 °C | Cc1ccccc1C1CCN(CC2CCc3ccccc3CC2)CC1.Cl |
| 239 to 240 °C | C1=CC(CN2CCC(c3ccccc3)CC2)Cc2ccccc21.Cl (racemic) |
| 52 to 55 °C | Cc1cc(C)c2c(c1)C(O)CC(CN1CCC(c3ccccc3)CC1)CC2 (racemic) [Example 20, (±)-1,3-dimethyl-7-[(4-phenylpiperidin-1-yl)methyl]-6,7,8,9-tetrahydro-5H-benzocyclohepten-5-ol] |
